Reference: US9428507B2, “Compounds for the treatment of malaria” (The Broad Institute, Inc., priority 2013, dated 2016)

System: Dd2 strain of P. falciparum
Test: Activity against the Dd2 strain of P. falciparum (SYBR Green I, 72-h incubation)
Assay type: cell-based
Settings: Plasmodium falciparum, DD2, 72 h, read-out: EC^50 Dd2
Method in brief: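 Dd2 parasites at 1% parasitemia and 1.0% hematocrit in albumax II screening medium, 72 h at 37° C under 93% N2/4% CO2/3% O2; final DMSO 0.125%. Growth read as SYBR Green I fluorescence (485/530 nm) after lysis and 24 h staining. 20 μM mefloquine defined background, DMSO baseline.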

| EC50 [nM] | SMILES |
| --- | --- |
| 269 | COc1ccc2c3c([nH]c2c1)[C@H](CO)N(C(=O)Cc1ccccc1)CC31CCN(C(=O)Nc2ccccc2F)CC1 [Compound 105, (R)-N-(2-fluorophenyl)-1′-(hydroxymethyl)-7′-methoxy-2′-(2-phenylacetyl)-1′,2′,3′,9′-tetrahydrospiro [piperidine-4,4′-pyrido[3,4-b]indole]-1-carboxamide] |
| 2210 | CCC(=O)N1CCC2(CC1)CN(Cc1cccc(OC)c1)[C@@H](CO)c1[nH]c3cc(OC)ccc3c12 [Compound 107, (R)-1-(1′-(hydroxymethyl)-7′-methoxy-2′-(3-methoxybenzyl)-1′,2′,3′,9′-tetrahydrospiro [piperidine-4,4′-pyrido[3,4-b]indol]-1-yl)propan-1-one] |
| 1220 | COc1ccc2c3c(n(C)c2c1)[C@@H](CO)N(C(=O)c1ccc(F)cc1)CC31CN(C(=O)Nc2ccc(F)cc2)C1 [Compound 108, (S)-2′-(4-fluorobenzoyl)-N-(4-fluorophenyl)-1′-(hydroxymethyl)-7′-methoxy-9′-methyl-1′,2′,3′,9′-tetrahydrospiro[azetidine-3,4′-pyrido[3,4-b]indole]-1-carboxamide] |
| 779 | COc1ccc2c3c(n(C)c2c1)[C@@H](CO)N(C(=O)C1CCC1)CC31CN(C(=O)Nc2cccc(F)c2)C1 [Compound 110, (S)-2′-(cyclobutanecarbonyl)-N-(3-fluorophenyl)-1′-(hydroxymethyl)-7′-methoxy-9′-methyl-1′,2′,3′,9′-tetrahydrospiro [azetidine-3,4′-pyrido[3,4-b]indole]-1-carboxamide] |
| 1100 | CCC(=O)N1CC2(CCN(C(=O)Nc3ccccc3F)CC2)c2c([nH]c3cc(OC)ccc23)[C@H]1CO [Compound 113, (S)-N-(2-fluorophenyl)-1′-(hydroxymethyl)-7′-methoxy-2′-propionyl-1′,2′,3′,9′-tetrahydrospiro [piperidine-4,4′-pyrido[3,4-b]indole]-1-carboxamide] |
| 951 | COc1ccc2c3c(n(C)c2c1)[C@H](CO)N(C(=O)Nc1ccc(F)cc1)CC31CCN(S(=O)(=O)c2cccc(F)c2)CC1 [Compound 114, (R)-N-(4-fluorophenyl)-1-((3-fluorophenyl)sulfonyl)-1′-(hydroxymethyl)-7′-methoxy-9′-methyl-3′,9′-dihydrospiro [piperidine-4,4′-pyrido[3,4-b]indole]-2′(1′H)-carboxamide] |
| 1040 | COc1ccc2c3c(n(C)c2c1)[C@@H](CO)N(C(=O)c1ccccc1)CC31CCN(C(=O)c2ccccc2)CC1 [Compound 115, (S)-(1′-(hydroxymethyl)-7′-methoxy-9′-methylspiro [piperidine-4,4′-pyrido[3,4-b]indol]-1,2′(1′ H,3′H,9′H)-diyl)bis(phenylmethanone)] |
| 1470 | CCC(=O)N1CCC2(CC1)CN(S(=O)(=O)c1ccccc1)[C@@H](CO)c1[nH]c3cc(OC)ccc3c12 [Compound 116, (R)-1-(1′-(hydroxymethyl)-7′-methoxy-2′-(phenylsulfonyl)-1′,2′,3′,9′-tetrahydrospiro [piperidine-4,4′-pyrido[3,4-b]indol]-1-yl) propan-1-one] |
| 1960 | CCC(=O)N1CCC2(CC1)CN(Cc1cc(F)ccc1F)[C@H](CO)c1[nH]c3cc(OC)ccc3c12 [Compound 118, (S)-1-(2′-(2,5-difluorobenzyl)-1′-(hydroxymethyl)-7′-methoxy-1′,2′,3′,9′-tetrahydrospiro [piperidine-4,4′-pyrido[3,4-b]indol]-1-yl) propan-1-one] |
| 1720 | COc1ccc(S(=O)(=O)N2CCC3(CC2)CN(Cc2ccncc2)[C@H](CO)c2[nH]c4cc(OC)ccc4c23)cc1 [Compound 119, (S)-(7′-methoxy-1-((4-methoxyphenyl)sulfonyl)-2′-(pyridin-4-ylmethyl)-1′,2′,3′,9′-tetrahydrospiro [piperidine-4,4′-pyrido[3,4-b]indol]-1′-yl) methanol] |
| 1650 | CCCC(=O)N1CC2(C1)CN(S(=O)(=O)c1ccc(C)cc1)[C@@H](CO)c1[nH]c3cc(OC)ccc3c12 [Compound 120, (R)-1-(1′-(hydroxymethyl)-7′-methoxy-2′-tosyl-1′,2′,3′,9′-tetrahydrospiro[azetidine-3,4′-pyrido[3,4-b]indol]-1-yl)butan-1-one] |
| 683 | COc1ccc2c3c(n(C)c2c1)[C@H](CO)N(C(=O)Nc1ccc(F)cc1)CC31CN(C(=O)c2ccc3c(c2)OCO3)C1 [Compound 123, (R)-1-(benzo[d] [1,3]dioxole-5-carbonyl)-N-(4-fluorophenyl)-1′-(hydroxymethyl)-7′-methoxy-9′-methyl-3′,9′-dihydrospiro [azetidine-3,4′-pyrido[3,4-b]indole]-2′(1′H)-carboxamide] |
| 880 | CCS(=O)(=O)N1CCC2(CC1)CN(S(=O)(=O)c1ccc(C)cc1)[C@@H](CO)c1[nH]c3cc(OC)ccc3c12 [Compound 124, (R)-(1-(ethylsulfony1)-7′-methoxy-2′-tosyl-1′,2′,3′,9′-tetrahydrospiro [piperidine-4,4′-pyrido[3,4-b]indol]-1′-yl)methanol] |
| 343 | COc1ccc2c3c(n(C)c2c1)[C@@H](CO)N(C(=O)C1CC1)CC31CCN(C(=O)Nc2cccc(F)c2)CC1 [Compound 125, (S)-2′-(cyclopropanecarbonyl)-N-(3-fluorophenyl)-1′-(hydroxymethyl)-7′-methoxy-9′-methyl-1′,2′,3′,9′-tetrahydrospiro [piperidine-4,4′-pyrido[3,4-b]indole]-1-carboxamide] |
| 437 | COc1ccc(NC(=O)N2CC3(C2)CN(C(=O)C2CCC2)[C@H](CO)c2c3c3ccc(OC)cc3n2C)cc1 [Compound 126, (S)-2′-(cyclobutanecarbonyl)-1′-(hydroxymethyl)-7′-methoxy-N-(4-methoxyphenyl)-9′-methyl-1′,2′,3′,9′-tetrahydrospiro [azetidine-3,4′-pyrido[3,4-b]indole]-1-carboxamide] |
| 750 | COc1ccc2c3c([nH]c2c1)[C@H](CO)N(C(=O)Nc1ccc(F)cc1)CC31CCN(S(=O)(=O)c2cccc(F)c2)CC1 [Compound 128, (R)-N-(4-fluorophenyl)-1-((3-fluorophenyl)sulfonyl)-1′-(hydroxymethyl)-7′-methoxy-3′,9′-dihydrospiro [piperidine-4,4′-pyrido[3,4-b]indole]-2′(1′H)-carboxamide] |
| 794 | COc1ccc2c3c(n(C)c2c1)[C@@H](CO)N(C(=O)c1ccc(F)cc1)CC31CCN(C(=O)Nc2ccc(F)cc2)CC1 [Compound 129] |
| 892 | COc1ccc2c3c(n(C)c2c1)[C@H](CO)N(C(=O)Nc1ccc(F)cc1)CC31CCN(C(=O)c2ccc3c(c2)OCO3)CC1 [Compound 131, (R)-1-(benzo[d] [1,3]dioxole-5-carbonyl)-N-(4-fluorophenyl)-1′-(hydroxymethyl)-7′-methoxy-9′-methyl-3′,9′-dihydrospiro [piperidine-4,4′-pyrido[3,4-b]indole]-2′(1′H)-carboxamide] |

| SMILES | EC50 [nM] |
| --- | --- |
| COc1ccc2c3c(n(C)c2c1)[C@@H](CO)N(C(=O)Nc1ccc(F)cc1)CC31CCN(Cc2cccnc2)CC1 [Compound 106, (S)-N-(4-fluorophenyl)-1′-(hydroxymethyl)-7′-methoxy-9′-methyl-1-(pyridin-3-ylmethyl)-3′,9′-dihydrospiro [piperidine-4,4′-pyrido[3,4-b]indole]-2′(1′H)-carboxamide] | 727 |
| COc1ccc2c3c(n(C)c2c1)[C@@H](CO)N(CC1CCCCC1)CC31CCN(Cc2nccs2)CC1 [Compound 109, (S)-(2′-(cyclohexylmethyl)-7′-methoxy-9′-methyl-1-(thiazol-2-ylmethyl)-1′,2′,3′,9′-tetrahydrospiro [piperidine-4,4′-pyrido[3,4-b]indol]-1′-yl)methanol] | 1030 |
| COc1ccc2c3c(n(C)c2c1)[C@H](CO)N(CC1CCOCC1)CC31CCN(Cc2nccs2)CC1 [Compound 112, (R)-(7′-methoxy-9′-methyl0-2′-((tetrahydro-2H-pyran-4-yl)methyl)-1-(thiazol-2-ylmethyl)-1′,2′,3′,9′-tetrahydrospiro [piperidine-4,4′-pyrido [3,4-b]indol]-1′-yl) methanol] | 1100 |
| COc1ccc2c3c(n(C)c2c1)[C@H](CO)N(C(=O)Nc1ccc(F)cc1)CC31CCN(Cc2cccnc2)CC1 [Compound 117, (R)-N-(4-fluorophenyl)-1′-(hydroxymethyl)-7′-methoxy-9′-methyl-1-(pyridin-3-ylmethyl)-3′,9′-dihydrospiro[piperidine-4,4′-pyrido[3,4-b]indole]-2′(1′H)-carboxamide] | 1610 |
| COc1ccc2c3c([nH]c2c1)[C@@H](CO)N(C(=O)CN(C)C)CC31CCN(CC2CCCCC2)CC1 [Compound 121, (S)-1-(1-(cyclohexylmethyl)-1′-(hydroxymethyl)-7′-methoxyspiro [piperidine-4,4′-pyrido[3,4-b]indol]-2′(1′H,3′H,9′H)-yl)-2-(dimethylamino) ethanone] | 360 |
| COc1ccc2c3c([nH]c2c1)[C@H](CO)N(Cc1ccccn1)CC31CCN(Cc2cccc(F)c2)CC1 [Compound 122] | 421 |
| COc1cccc(CN2CC3(CCN(Cc4ccccn4)CC3)c3c([nH]c4cc(OC)ccc34)[C@@H]2CO)c1 [Compound 127, (R)-(7′-methoxy-2′-(3-methoxybenzyl)-1-(pyridin-2-ylmethyl)-1′,2′,3′,9′-tetrahydrospiro [pipendine-4,4′-pyrido[3,4-b]indol]-1′-yl) methanol] | 1790 |
| COc1ccc2c3c(n(C)c2c1)[C@@H](CO)NCC31CCN(Cc2ccc(-c3ccccn3)cc2)CC1 [Compound 130, (S)-(7′-methoxy-9′-methyl-1-(4-(pyridin-2-yl)benzyl)-1′,2′,3′,9′-tetrahydrospiro[piperidine-4,4′-pyrido[3,4-b]indol]-1′-yl)methanol] | 439 |
| COc1ccc2c3c(n(C)c2c1)[C@@H](CO)N(Cc1ccc(Cl)cc1)CC31CCN(CC2CC2)CC1 [Compound 132, (S)-(2′-(4-chlorobenzyl)-1-(cyclopropylmethyl)-7′-methoxy-9′-methyl-1′,2′,3′,9′-tetrahydrospiro [piperidine-4,4′-pyrido[3,4-b]indol]-1′-yl) methanol] | 1670 |
